Paper PMC10682951, “Structure-function and rational design of a spider toxin Ssp1a at human voltage-gated sodium channel subtypes” (Frontiers in Pharmacology, 2023)
pIC50: −log10 of the molar value. Bridge positions count the residues as written; N and C are the ends. Peptide text beside a SMILES is read from it.

Tests used:
Format in all cases: cell-based
hNaV1.2 = molecular target: T1, hNaV1.2 (Homo sapiens, UniProt Q99250); assay: Automated whole-cell patch-clamp (QPatch 16X), hNaV1.2; details: for pIC50: HEK293 cells expressing hNaV1.2 + β1 subunit, QPatch 16X, holding −80 mV, step to 0 mV, peptide incubated 2 min, 0.1% BSA, mean, SEM and n (2-7)
T1 construct: host or cells: HEK293
Procedure: (§1) Human embryonic kidney 293 (HEK293) cells stably expressing recombinant hNaV1.2, hNaV1.3 and hNaV1.7 and the β1 auxiliary subunit (Scottish Biomedical Drug Discovery, Glasgow, UK) were cultured in Minimal Essential medium (MEM) (Sigma-Aldrich, MO, United States) supplemented with 10% v/v FBS-New Zealand origin (Assay Matrix), 2 mM L-glutamine and selection antibiotics as per manufacturer’s recommendation. The HEK293 cells heterologously expressing mNaV1.7 and F813G-mNaV1.7 were generously provided by Prof Irina Vetter and were cultured in Minimal Essential medium (MEM) (Sigma-Aldrich, MO, United States) supplemented with 10% v/v FBS-New Zealand origin (Assay Matrix), 2 mM L-glutamine and hygromycin 100 μg/mL.
(§2) NaV channel currents from HEK293 cells stably expressing NaV subtypes and the β1 auxiliary subunit were recorded using an automated whole-cell patch clamp system QPatch 16X (Sophion Bioscience A/S, Ballerup, Denmark). As per the manufacturer’s guidelines, the cells were cultured for 48 h to achieve ∼80% confluency, detached using Detachin (Genlantis) and resuspended to 5 × 10^6 cells/mL in serum free media [CHO-cell SFM (Life Technologies), 25 mM HEPES and 100 U/mL penicillin/streptomycin]. The extracellular solution comprised (in mM) 1 CaCl2, 1 MgCl2, 5 HEPES, 3 KCl, 140 NaCl and 20 TEA-Cl, with the pH adjusted to 7.3 with NaOH. The intracellular solution comprised (in mM) 140 CsF, 1 EGTA, 5 CsOH, 10 HEPES and 10 NaCl, with the pH adjusted to 7.3 with CsOH. The osmolarity of both solutions were adjusted to 320 mOsm with sucrose. Compounds were prepared in extracellular solution containing 0.1% bovine serum albumin (Sigma-Aldrich). To obtain the dose-response curves, cells were maintained at a holding potential −80 mV and Na^+ currents were elicited by […] voltage steps to 0 mV from a −120 mV conditioning pulse applied for […]. Increasing concentrations of the peptide were incubated with the cells at the holding potential for 2 min before the voltage protocol was applied.
(§3) The experimental data were analysed using QPatch Assay software v5.6.4 and GraphPad Prism 7.0 using a four-parameter Hill equation [Y = Bottom + (Top—Bottom)/(1 + 10^(Log IC50—X)* Hillslope)] to fit concentration response curves by non-linear regression analysis and Student’s t-test. Data are presented as means ± standard error of mean (SEM) with number of independent experiments stated and p < 0.05 is considered statistically significant. Statistically insignificant shift in the activity is denoted by “little” while small but statistically significant shift in the activity is denoted by “slight” throughout the manuscript.

hNaV1.3 = molecular target: T2, hNaV1.3 (Homo sapiens, UniProt Q9NY46); assay: Automated whole-cell patch-clamp (QPatch 16X), hNaV1.3; details: HEK293 cells expressing hNaV1.3 + β1 subunit; QPatch 16X; holding −80 mV, step to 0 mV; peptide incubated 2 min; 0.1% BSA; mean, SEM and n (3-12)
T2 construct: host or cells: HEK293
Procedure: as §1, §2, §3

hNaV1.7 = molecular target: T3, hNaV1.7 (Homo sapiens, UniProt Q15858); assay: Automated whole-cell patch-clamp (QPatch 16X), hNaV1.7; details: for pIC50: HEK293 cells expressing hNaV1.7 + β1 subunit, QPatch 16X, holding −80 mV, step to 0 mV, peptide incubated 2 min, 0.1% BSA, mean, SEM and n (3-9)
T3 construct: host or cells: HEK293
Procedure: as §1, §2, §3

T1 sequence (Q07699 19-218): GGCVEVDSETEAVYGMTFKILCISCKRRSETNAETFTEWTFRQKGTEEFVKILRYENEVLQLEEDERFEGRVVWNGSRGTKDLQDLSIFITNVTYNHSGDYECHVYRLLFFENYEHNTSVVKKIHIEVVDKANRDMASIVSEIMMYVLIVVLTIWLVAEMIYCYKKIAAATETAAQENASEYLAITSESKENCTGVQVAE
T1 sequence (Q99250 whole entry): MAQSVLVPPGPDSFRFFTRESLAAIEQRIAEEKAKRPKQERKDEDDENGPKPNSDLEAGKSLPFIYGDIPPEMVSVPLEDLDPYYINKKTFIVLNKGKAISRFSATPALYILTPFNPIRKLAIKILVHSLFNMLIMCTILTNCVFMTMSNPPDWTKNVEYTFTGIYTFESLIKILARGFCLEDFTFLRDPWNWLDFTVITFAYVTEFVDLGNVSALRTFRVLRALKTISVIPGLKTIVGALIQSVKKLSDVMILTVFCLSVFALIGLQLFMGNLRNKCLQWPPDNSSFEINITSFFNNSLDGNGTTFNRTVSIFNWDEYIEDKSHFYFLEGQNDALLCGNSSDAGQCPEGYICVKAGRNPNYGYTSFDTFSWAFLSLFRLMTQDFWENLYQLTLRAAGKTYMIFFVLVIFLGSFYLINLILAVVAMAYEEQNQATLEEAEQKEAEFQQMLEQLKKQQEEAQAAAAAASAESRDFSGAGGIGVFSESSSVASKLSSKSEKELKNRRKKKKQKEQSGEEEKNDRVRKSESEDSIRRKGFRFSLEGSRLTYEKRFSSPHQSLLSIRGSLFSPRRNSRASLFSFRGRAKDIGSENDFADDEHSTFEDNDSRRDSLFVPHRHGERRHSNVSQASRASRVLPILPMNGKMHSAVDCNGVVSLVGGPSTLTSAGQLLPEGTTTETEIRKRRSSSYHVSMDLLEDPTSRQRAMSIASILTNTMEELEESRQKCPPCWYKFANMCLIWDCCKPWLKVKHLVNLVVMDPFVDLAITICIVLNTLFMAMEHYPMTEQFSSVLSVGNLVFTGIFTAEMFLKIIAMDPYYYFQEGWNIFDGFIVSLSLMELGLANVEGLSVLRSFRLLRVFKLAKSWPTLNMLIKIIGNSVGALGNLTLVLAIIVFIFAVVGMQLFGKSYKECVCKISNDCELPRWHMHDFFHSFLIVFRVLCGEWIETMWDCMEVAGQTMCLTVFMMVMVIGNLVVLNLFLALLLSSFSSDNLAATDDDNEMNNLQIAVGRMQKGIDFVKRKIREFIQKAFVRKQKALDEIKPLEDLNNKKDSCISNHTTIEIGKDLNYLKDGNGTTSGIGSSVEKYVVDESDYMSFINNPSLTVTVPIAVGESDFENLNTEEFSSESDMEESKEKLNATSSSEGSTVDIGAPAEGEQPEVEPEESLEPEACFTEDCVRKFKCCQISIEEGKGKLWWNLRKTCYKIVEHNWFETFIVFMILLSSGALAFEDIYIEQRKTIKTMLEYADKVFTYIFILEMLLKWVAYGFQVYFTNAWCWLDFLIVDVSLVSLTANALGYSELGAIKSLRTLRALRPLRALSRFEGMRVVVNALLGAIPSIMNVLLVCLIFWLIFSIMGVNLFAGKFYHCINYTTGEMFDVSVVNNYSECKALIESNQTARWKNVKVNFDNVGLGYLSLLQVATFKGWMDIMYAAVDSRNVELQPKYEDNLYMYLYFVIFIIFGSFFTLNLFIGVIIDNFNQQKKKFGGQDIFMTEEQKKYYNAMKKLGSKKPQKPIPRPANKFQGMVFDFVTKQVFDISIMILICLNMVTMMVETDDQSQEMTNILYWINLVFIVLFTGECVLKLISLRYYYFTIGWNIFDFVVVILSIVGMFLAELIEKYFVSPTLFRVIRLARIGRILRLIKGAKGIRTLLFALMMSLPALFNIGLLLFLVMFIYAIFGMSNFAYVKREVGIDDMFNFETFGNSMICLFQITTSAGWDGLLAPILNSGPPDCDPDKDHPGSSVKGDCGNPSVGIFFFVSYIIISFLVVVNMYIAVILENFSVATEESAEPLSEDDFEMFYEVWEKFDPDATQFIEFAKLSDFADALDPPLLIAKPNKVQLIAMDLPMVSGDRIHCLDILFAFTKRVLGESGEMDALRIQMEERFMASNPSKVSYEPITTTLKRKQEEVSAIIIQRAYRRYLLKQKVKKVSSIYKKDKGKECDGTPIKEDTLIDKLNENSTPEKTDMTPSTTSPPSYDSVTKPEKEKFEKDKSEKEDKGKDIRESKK
T2 sequence (Q9NY46 whole entry): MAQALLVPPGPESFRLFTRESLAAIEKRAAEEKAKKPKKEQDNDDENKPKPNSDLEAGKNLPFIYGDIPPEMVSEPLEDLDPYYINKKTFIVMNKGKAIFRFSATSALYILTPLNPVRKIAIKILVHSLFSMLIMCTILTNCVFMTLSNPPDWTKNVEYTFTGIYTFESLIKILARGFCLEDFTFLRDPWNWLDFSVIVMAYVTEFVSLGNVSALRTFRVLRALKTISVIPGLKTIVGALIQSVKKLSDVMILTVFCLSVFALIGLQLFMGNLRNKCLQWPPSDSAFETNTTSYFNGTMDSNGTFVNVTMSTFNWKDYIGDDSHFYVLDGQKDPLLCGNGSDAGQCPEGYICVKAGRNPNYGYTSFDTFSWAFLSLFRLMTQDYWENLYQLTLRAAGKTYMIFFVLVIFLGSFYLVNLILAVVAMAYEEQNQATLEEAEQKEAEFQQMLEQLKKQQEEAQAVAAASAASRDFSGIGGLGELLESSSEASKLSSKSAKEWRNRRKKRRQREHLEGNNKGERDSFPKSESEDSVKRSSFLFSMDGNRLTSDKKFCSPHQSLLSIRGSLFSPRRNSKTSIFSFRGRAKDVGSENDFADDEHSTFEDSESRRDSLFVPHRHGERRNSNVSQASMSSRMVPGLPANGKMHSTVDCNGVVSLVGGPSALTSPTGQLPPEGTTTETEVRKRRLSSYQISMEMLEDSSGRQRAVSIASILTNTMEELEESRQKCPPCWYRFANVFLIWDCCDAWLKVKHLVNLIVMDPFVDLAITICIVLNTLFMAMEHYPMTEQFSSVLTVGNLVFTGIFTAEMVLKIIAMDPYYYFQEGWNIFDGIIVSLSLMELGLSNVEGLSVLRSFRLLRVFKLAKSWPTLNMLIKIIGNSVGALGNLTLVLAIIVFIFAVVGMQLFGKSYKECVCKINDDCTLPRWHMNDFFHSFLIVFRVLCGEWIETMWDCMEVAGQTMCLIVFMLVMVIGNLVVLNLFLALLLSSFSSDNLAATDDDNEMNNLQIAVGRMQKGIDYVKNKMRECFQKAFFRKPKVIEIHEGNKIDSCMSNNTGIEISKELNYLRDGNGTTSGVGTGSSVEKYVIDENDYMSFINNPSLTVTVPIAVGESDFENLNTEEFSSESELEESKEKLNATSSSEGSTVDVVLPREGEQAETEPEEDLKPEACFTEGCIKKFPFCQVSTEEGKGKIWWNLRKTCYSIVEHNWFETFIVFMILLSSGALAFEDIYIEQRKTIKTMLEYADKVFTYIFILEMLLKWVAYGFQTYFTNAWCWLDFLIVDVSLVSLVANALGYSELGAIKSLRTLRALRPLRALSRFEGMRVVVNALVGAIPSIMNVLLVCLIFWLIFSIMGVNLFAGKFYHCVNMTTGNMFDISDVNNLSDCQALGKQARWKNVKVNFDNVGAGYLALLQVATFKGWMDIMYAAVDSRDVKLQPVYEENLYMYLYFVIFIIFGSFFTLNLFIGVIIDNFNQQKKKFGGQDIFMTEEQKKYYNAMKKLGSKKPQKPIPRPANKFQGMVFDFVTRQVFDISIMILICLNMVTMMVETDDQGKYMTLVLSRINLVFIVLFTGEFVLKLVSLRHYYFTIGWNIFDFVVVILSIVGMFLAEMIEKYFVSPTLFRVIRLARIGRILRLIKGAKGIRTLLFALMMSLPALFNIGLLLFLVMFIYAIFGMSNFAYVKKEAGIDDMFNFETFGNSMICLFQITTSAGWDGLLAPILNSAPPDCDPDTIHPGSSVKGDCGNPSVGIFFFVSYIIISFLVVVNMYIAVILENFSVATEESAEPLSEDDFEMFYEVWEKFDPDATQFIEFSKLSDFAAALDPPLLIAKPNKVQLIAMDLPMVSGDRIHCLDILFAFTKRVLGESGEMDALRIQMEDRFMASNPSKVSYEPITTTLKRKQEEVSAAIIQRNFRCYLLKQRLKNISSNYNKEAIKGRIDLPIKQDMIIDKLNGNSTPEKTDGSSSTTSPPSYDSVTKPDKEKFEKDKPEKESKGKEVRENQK
T2 sequence (Q07699 19-218, further chain): as the sequence (Q07699 19-218) above

| SMILES | pIC50 (hNaV1.2) | hNaV1.2-selectivity against hNaV1.3 (hNaV1.2; ratio of potencies hNaV1.3 / hNaV1.2) [fold] | pIC50 (hNaV1.3) | pIC50 (hNaV1.7) | Loss (reduction) in potency vs rSsp1a at hNaV1.2 (hNaV1.2; relative to wild type rSsp1a) [fold] | Loss (reduction) in potency vs rSsp1a at hNaV1.7 (hNaV1.7; relative to wild type rSsp1a) [fold] |
| --- | --- | --- | --- | --- | --- | --- |
| CC(C)C[C@H](NC(=O)[C@H](Cc1ccc(O)cc1)NC(=O)[C@H](Cc1ccc(O)cc1)NC(=O)[C@H](CCCNC(=N)N)NC(=O)[C@@H]1CSSC[C@@H]2NC(=O)[C@H](CCCCN)NC(=O)[C@H](CC(N)=O)NC(=O)[C@H](CC(N)=O)NC(=O)[C@H](CC(N)=O)NC(=O)[C@@H]3CCCN3C(=O)[C@H](CC(=O)O)NC(=O)[C@@H]3CSSC[C@H](NC(=O)[C@H](C(C)C)NC(=O)[C@H](Cc4ccc(O)cc4)NC(=O)CNC(=O)[C@H](CCC(=O)O)NC(=O)[C@H](CSSC[C@H](NC(=O)[C@H](CC(=O)O)NC(=O)CN)C(=O)N[C@@H](CC(C)C)C(=O)NCC(=O)N[C@@H](Cc4c[nH]c5ccccc45)C(=O)N[C@@H](Cc4ccccc4)C(=O)N[C@@H](CO)C(=O)NCC(=O)N3)NC2=O)C(=O)N[C@@H](Cc2c[nH]cn2)C(=O)N[C@@H](Cc2c[nH]c3ccccc23)C(=O)N[C@@H](CCCCN)C(=O)N[C@@H](Cc2ccc(O)cc2)C(=O)N2CCC[C@H]2C(=O)N[C@@H](Cc2c[nH]c3ccccc23)C(=O)N1)C(=O)O [D32Y] | 7.12 | ~6 | 6.38 | 6.96 | – | – |
| CC(C)C[C@H](NC(=O)[C@H](CC(=O)O)NC(=O)[C@H](Cc1ccc(O)cc1)NC(=O)[C@H](CCCNC(=N)N)NC(=O)[C@@H]1CSSC[C@@H]2NC(=O)[C@H](CCCCN)NC(=O)[C@H](CC(N)=O)NC(=O)[C@H](CC(N)=O)NC(=O)[C@H](CC(N)=O)NC(=O)[C@@H]3CCCN3C(=O)[C@H](CC(=O)O)NC(=O)[C@@H]3CSSC[C@H](NC(=O)[C@H](C(C)C)NC(=O)[C@H](Cc4ccc(O)cc4)NC(=O)CNC(=O)[C@H](Cc4ccccc4)NC(=O)[C@H](CSSC[C@H](NC(=O)[C@H](CC(=O)O)NC(=O)CN)C(=O)N[C@@H](CC(C)C)C(=O)NCC(=O)N[C@@H](Cc4c[nH]c5ccccc45)C(=O)N[C@@H](Cc4ccccc4)C(=O)N[C@@H](CO)C(=O)NCC(=O)N3)NC2=O)C(=O)N[C@@H](Cc2c[nH]cn2)C(=O)N[C@@H](Cc2c[nH]c3ccccc23)C(=O)N[C@@H](CCCCN)C(=O)N[C@@H](Cc2ccc(O)cc2)C(=O)N2CCC[C@H]2C(=O)N[C@@H](Cc2c[nH]c3ccccc23)C(=O)N1)C(=O)O [E18F] | 6.63 | – | 6.40 | 6.77 | – | – |
| CC(C)C[C@H](NC(=O)[C@H](CC(=O)O)NC(=O)[C@H](Cc1ccc(O)cc1)NC(=O)[C@H](CCCNC(=N)N)NC(=O)[C@@H]1CSSC[C@@H]2NC(=O)[C@H](CCCCN)NC(=O)[C@H](CC(N)=O)NC(=O)[C@H](CC(N)=O)NC(=O)[C@H](CC(N)=O)NC(=O)[C@@H]3CCCN3C(=O)[C@H](CC(=O)O)NC(=O)[C@@H]3CSSC[C@H](NC(=O)[C@H](C(C)C)NC(=O)[C@H](Cc4ccc(O)cc4)NC(=O)CNC(=O)CNC(=O)[C@H](CSSC[C@H](NC(=O)[C@H](CC(=O)O)NC(=O)CN)C(=O)N[C@@H](CC(C)C)C(=O)NCC(=O)N[C@@H](Cc4c[nH]c5ccccc45)C(=O)N[C@@H](Cc4ccccc4)C(=O)N[C@@H](CO)C(=O)NCC(=O)N3)NC2=O)C(=O)N[C@@H](Cc2c[nH]cn2)C(=O)N[C@@H](Cc2c[nH]c3ccccc23)C(=O)N[C@@H](CCCCN)C(=O)N[C@@H](Cc2ccc(O)cc2)C(=O)N2CCC[C@H]2C(=O)N[C@@H](Cc2c[nH]c3ccccc23)C(=O)N1)C(=O)O [E18G] | 6.92 | – | 6.39 | 6.56 | – | – |
| CC(C)C[C@H](NC(=O)[C@H](CC(=O)O)NC(=O)[C@H](Cc1ccc(O)cc1)NC(=O)[C@H](CCCNC(=N)N)NC(=O)[C@@H]1CSSC[C@@H]2NC(=O)[C@H](CCCCN)NC(=O)[C@H](CC(N)=O)NC(=O)[C@H](CC(N)=O)NC(=O)[C@H](CC(N)=O)NC(=O)[C@@H]3CCCN3C(=O)[C@H](CC(=O)O)NC(=O)[C@@H]3CSSC[C@H](NC(=O)[C@H](C(C)C)NC(=O)[C@H](Cc4ccc(O)cc4)NC(=O)CNC(=O)[C@H](CCCCN)NC(=O)[C@H](CSSC[C@H](NC(=O)[C@H](CC(=O)O)NC(=O)CN)C(=O)N[C@@H](CC(C)C)C(=O)NCC(=O)N[C@@H](Cc4c[nH]c5ccccc45)C(=O)N[C@@H](Cc4ccccc4)C(=O)N[C@@H](CCCNC(=N)N)C(=O)NCC(=O)N3)NC2=O)C(=O)N[C@@H](Cc2c[nH]cn2)C(=O)N[C@@H](Cc2c[nH]c3ccccc23)C(=O)N[C@@H](CCCCN)C(=O)N[C@@H](Cc2ccc(O)cc2)C(=O)N2CCC[C@H]2C(=O)N[C@@H](Cc2c[nH]c3ccccc23)C(=O)N1)C(=O)O [E18K/S7R] (H-GDCLGWFRGCDPNNNKCCKGYVCHWKYPWCRYDL-OH; disulfide 3-18, 10-23, 17-30) | 7.40 | – | 7.23 | 7.40 | – | – |
| CC(C)C[C@H](NC(=O)[C@H](CC(=O)O)NC(=O)[C@H](Cc1ccc(O)cc1)NC(=O)[C@H](CCCNC(=N)N)NC(=O)[C@@H]1CSSC[C@@H]2NC(=O)[C@H](CCCCN)NC(=O)[C@H](CC(N)=O)NC(=O)[C@H](CC(N)=O)NC(=O)[C@H](CC(N)=O)NC(=O)[C@@H]3CCCN3C(=O)[C@H](CC(=O)O)NC(=O)[C@@H]3CSSC[C@H](NC(=O)[C@H](C(C)C)NC(=O)[C@H](Cc4ccc(O)cc4)NC(=O)CNC(=O)[C@H](CCCCN)NC(=O)[C@H](CSSC[C@H](NC(=O)[C@H](CC(=O)O)NC(=O)CN)C(=O)N[C@@H](CC(C)C)C(=O)NCC(=O)N[C@@H](Cc4c[nH]c5ccccc45)C(=O)N[C@@H](Cc4ccccc4)C(=O)N[C@@H](CO)C(=O)NCC(=O)N3)NC2=O)C(=O)N[C@@H](Cc2c[nH]cn2)C(=O)N[C@@H](Cc2c[nH]c3ccccc23)C(=O)N[C@@H](CCCCN)C(=O)N[C@@H](Cc2ccc(O)cc2)C(=O)N2CCC[C@H]2C(=O)N[C@@H](Cc2c[nH]c3ccccc23)C(=O)N1)C(=O)O [E18K] | 7.14 | – | 6.50 | 6.97 | – | – |
| CC(C)C[C@H](NC(=O)[C@H](CC(=O)O)NC(=O)[C@H](Cc1ccc(O)cc1)NC(=O)[C@H](CCCNC(=N)N)NC(=O)[C@@H]1CSSC[C@@H]2NC(=O)[C@H](CCCCN)NC(=O)[C@H](CC(N)=O)NC(=O)[C@H](CC(N)=O)NC(=O)[C@H](CC(N)=O)NC(=O)[C@@H]3CCCN3C(=O)[C@H](CC(=O)O)NC(=O)[C@@H]3CSSC[C@H](NC(=O)[C@H](C(C)C)NC(=O)[C@H](Cc4ccc(O)cc4)NC(=O)CNC(=O)[C@H](Cc4ccc(O)cc4)NC(=O)[C@H](CSSC[C@H](NC(=O)[C@H](CC(=O)O)NC(=O)CN)C(=O)N[C@@H](CC(C)C)C(=O)NCC(=O)N[C@@H](Cc4c[nH]c5ccccc45)C(=O)N[C@@H](Cc4ccccc4)C(=O)N[C@@H](CO)C(=O)NCC(=O)N3)NC2=O)C(=O)N[C@@H](Cc2c[nH]cn2)C(=O)N[C@@H](Cc2c[nH]c3ccccc23)C(=O)N[C@@H](CCCCN)C(=O)N[C@@H](Cc2ccc(O)cc2)C(=O)N2CCC[C@H]2C(=O)N[C@@H](Cc2c[nH]c3ccccc23)C(=O)N1)C(=O)O [E18Y] | 6.69 | – | 6.52 | 6.75 | – | – |
| CC(C)C[C@H](NC(=O)[C@H](CC(=O)O)NC(=O)[C@H](Cc1ccc(O)cc1)NC(=O)[C@H](CCCNC(=N)N)NC(=O)[C@@H]1CSSC[C@@H]2NC(=O)[C@H](CCCCN)NC(=O)[C@H](CC(N)=O)NC(=O)[C@H](CC(N)=O)NC(=O)[C@H](CC(N)=O)NC(=O)[C@@H]3CCCN3C(=O)[C@H](CC(=O)O)NC(=O)[C@@H]3CSSC[C@H](NC(=O)[C@H](C(C)C)NC(=O)[C@H](Cc4ccc(O)cc4)NC(=O)CNC(=O)[C@H](CCC(=O)O)NC(=O)[C@H](CSSC[C@H](NC(=O)[C@H](CC(=O)O)NC(=O)CN)C(=O)N[C@@H](CC(C)C)C(=O)NCC(=O)N[C@@H](Cc4c[nH]c5ccccc45)C(=O)N[C@@H](C)C(=O)N[C@@H](CO)C(=O)NCC(=O)N3)NC2=O)C(=O)N[C@@H](Cc2c[nH]cn2)C(=O)N[C@@H](Cc2c[nH]c3ccccc23)C(=O)N[C@@H](CCCCN)C(=O)N[C@@H](Cc2ccc(O)cc2)C(=O)N2CCC[C@H]2C(=O)N[C@@H](Cc2c[nH]c3ccccc23)C(=O)N1)C(=O)O [F6A] (H-GDCLGWASGCDPNNNKCCEGYVCHWKYPWCRYDL-OH; disulfide 3-18, 10-23, 17-30 (inferred); N-terminus and C-terminus assumed) | < 6.00 | – | < 6.00 | < 6.00 | ≥ 10 | ≥ 10 |
